The text below walks through data of patent US20210106574A1, “Methods of Treating Cancer” (Tesaro, Inc., priority 2017, published 2021).

The subject of test [1] is HRR mutant PDX models. The method, then: The relative contribution of the loss of BRCA and non-BRCA HRR genes to PARP synthetic lethality in additional indications other than ovarian and breast was also evaluated. To this end, CRISPR/Cas9 technology was utilized to knock-out either the single or both alleles of 11 clinically-relevant HR genes in two different genetic backgrounds.

Test [2] has as its system HRR11 KO isogenic Dld-1 cell lines. The settings on record: bi-allelic mutations in BRCA1, BRCA2, PALB2 and ATM (FIG. 5). The method, then:
CRISPR/Cas9 technology was used to knock-out either the single or both alleles of 11 clinically-relevant HR genes in two different genetic backgrounds, using Dld-1 and HeLa cell lines. […] Compounds were added 24 h after cell seeding, and then every 3- to 4-days (2-times a week) during the incubation period (for 13-days incubation period).

The test system of test [3] is platinum-sensitive recurrent ovarian cancer patients.
Procedure: Two cohorts were treated: the germline BRCA mutant positive cohort (gBRCAmut) and the non-germline BRCA cohort (non-gBRCAmut). […] Patients in this cohort were germline BRCA mutation carriers as assessed by the FDA-approved Integrated BRACAnalysis test. Patients in the non-gBRCAmut were negative in the FDA-approved Integrated BRACAnalysis test.
This objective is independently evaluated in a cohort of patients with germline BRCA mutation (gBRCAmut) and in a cohort of patients who have high grade serous or high grade predominantly serous histology but without such gBRCA mutations (non-gBRCAmut). […] Accordingly, HRD is used as a tumor biomarker classifier to be evaluated.
Study treatment was dispensed to patients on Day 1 and every cycle (28 days) thereafter until the patient discontinued study treatment. Study treatment was administered orally once daily continuously. Three capsules of 100 mg strength were taken at each dose administration. Clinic visits occurred in each cycle (every 4 weeks 3 days). Response evaluation criteria in solid tumors (RECIST) tumor assessment via computed tomography (CT) or magnetic resonance imaging (MRI) scan of abdomen/pelvis and clinically indicated areas was required at the end of every 2-cycles (8-weeks with a window of 7 days from date of visit) through Cycle 14, then at the end of every 3-cycles (12-weeks with a window of 7 days from date of visit) until progression.
Patients were assessed by the prolongation of progression-free survival (PFS). […] Response Evaluation Criteria in Solid Tumors (RECIST) was used for tumor assessment via a computed tomography (CT) or magnetic resonance imaging (MRI) scan of abdomen/pelvis and clinically indicated areas, which was required at the end of every 2-cycles (8-weeks) through cycle 14 (56-weeks), and then at the end of every 3-cycles (12-weeks) until progression.
Following completion of the NOVA study, formalin-fixed, paraffin-embedded (FFPE) archival tumor samples from NOVA patients were retrospectively analyzed using a pre-specified gene panel. […]
Test [4] has as its system NSCLC PDX models.
The subject of test [5] is PARP activity. To be noted: stimulated by hydrogen peroxide, various cell lines, cited from earlier work.
Test [6] concerns cancer cell lines silenced for or carrying mutations of BRCA-1 or BRCA-2; Ewing's sarcoma, ALL, NSCLC, SCLC and ATM-inactivated tumor cell lines. To be noted: cell lines silenced for BRCA-1 or BRCA-2 or carrying BRCA-1 or BRCA-2 mutations compared to wild type counterparts; cited from earlier work.
Test [7] relates to MDA-MB-436, CAPAN-1, GRANTA-519, OVCAR3, HT29 and DLD-1, patient derived Ewing's sarcoma, and TNBC xenograft models. The settings on record: xenograft models in mice; cited from earlier work.
Test [8] deals with ovarian cancer patients. The settings on record: cited from earlier work.
Test [9] relates to patients with advanced BRCA-mutant ovarian cancer. To be noted: cited from earlier work.
[10] abbreviates: ATM bi-allelic mutant NSCLC PDX models.
The mark [11] stands for this setting: 106 patients, 600 mg orally twice daily.

One may read the IC50 as the concentration that gives 50% inhibition.

Where a name gives a salt, the structure may show the parent alone. Read-outs that look alike come from different tables or passages of the source.

Consider `Cc1ccc(S(=O)(=O)O)cc1.NC(=O)c1cccc2cn(-c3ccc([C@@H]4CCCNC4)cc3)nc12` [Niraparib, (3S)-3-[4-{7-(aminocarbonyl)-2H-indazol-2-yl}phenyl]piperidine], for which the “PDX models with strong sensitivity, TGI>70%” value in [1] (setting [10]) was 33%. Also, the “PDX models with moderate sensitivity, TGI≥50%” value was 14% in test [1] (ATM bi-allelic mutant PDX models) and 43% in test [1] (BRCA2 bi-allelic mutant PDX models). Further, in test [1] (ATM monoallelic mutant PDX models), the “PDX models with TGI≥50%” value is given as 0/6. Besides, the “models sensitive with ≥50% TGI” value in [1] (BAP bi-allelic mutations, across 5-tumor types) was determined as 36%. Further, in test [1] (BRCA1/2 bi-allelic mutant PDX models), the “PDX models with moderate sensitivity, ≥50% TGI” value came to 43%. The “PDX models with >100% TGI” value in test [1] (OvCa PDX models) came out at 80%. For the same compound, in [1] (PALB2 monoallelic mutant PDX models (1/6)), the “PDX models with strong sensitivity” value came to 17%. The “niraparib sensitivity based on total growth inhibition (TGI)” value was “strongest niraparib sensitivity” in test [1] (bi-allelic mutations in BRCA1, BRCA2, PALB2 and ATM (FIG. 4)); “strongest niraparib sensitivity” in test [2]. In addition, the TGI in test [1] (sensitive PALB2 monoallelic mutant PDX model) came out at 93%. Moreover, the “Median Progression Free Survival (PFS)” value in test [3] (Non-tBRCA1/2 HRR mutant) is 15.7; in test [3] (tBRCA1/2 mutant), 15.4. For the same compound, the “effectiveness of niraparib treatment” value in [3] (tBRCA wildtype patients with at least one mutation in 31 DDR gene panel compared to no mutation) is on record as “similarly effective”. In addition, the “models sensitive to niraparib” value in [4] (setting [10]) is given as 2 out of 8; in [4] (HRR WT NSCLC PDX models (3 out of 40)), 7.5%. The IC50 in [5] (read-out: IC50, PARP activity in cells) is around 0.004 µM. Moreover, the IC90 in [5] (read-out: inhibitory concentration at 90% of control (IC90), PARP activity in cells) was around 0.05 µM. Further, the anti-proliferative activity entry in [6] is reported as “selective anti-proliferative activity”. In addition, in [7], the antitumor activity entry is listed as “strong antitumor activity”.

For `O=C(c1cc(Cc2n[nH]c(=O)c3ccccc23)ccc1F)N1CCN(C(=O)C2CC2)CC1` [olaparib, 4-[(3-{[4-(cyclopropylcarbonyl)piperazin-1-yl]carbonyl}-4-fluorophenyl)methyl]phthalazin-1(2H)-one], the responses is 7 responses in test [8] (in 17 patients with BRCA1 or BRCA2 mutations) and 11 responses in test [8] (in the 46 who did not have these mutations).

`CNCc1ccc(-c2[nH]c3cc(F)cc4c3c2CCNC4=O)cc1` [rucaparib, 8-fluoro-2-{4-[(methylamino)methyl]phenyl}-1,3,4,5-tetrahydro-6H-azepino[5,4,3-cd]indol-6-one ((1S,4R)-7,7-dimethyl-2-oxobicyclo[2.2.1]hept-1-yl)methanesulfonic acid salt]: the “Response assessment by independent radiology review” value in test [9] (setting [11]) is 42%. Also, the “median DOR” value in test [9] (setting [11]) was 6.7 months. For the same compound, the “Investigator-assessed ORR” value in test [9] (platinum-refractory patients) is recorded as 0%; in test [9] (platinum-resistant patients), 25%; in test [9] (platinum-sensitive patients) it was 66%.
